From patent EP2931723B1, “NEW BICYCLIC COMPOUNDS AND THEIR USE AS ANTIBACTERIAL AGENTS AND -LACTAMASE INHIBITORS” (Fedora Pharmaceuticals Inc., priority 2012, dated 2014)

Columns and labels:
Experiment in all cases: MIC, antibacterial and synergistic activity
Assay type in all cases: cell-based
[1] = test system: E. coli ATCC 25922; details: E. coli ATCC 25922 (Wt)
[2] = test system: E. coli JMI 10767; details: E. coli JMI 10767 (Wt)
Experimental: (§1) In the Tables 10 - 12, compounds herein disclosed were tested in combination with various antibiotics against metallo β-lactamase producing bacteria. Table 3: Synergy of the inhibitor Ex. 1 (4 µg/mL) in combination with antibiotics

[3] = test system: E. coli JMI 10768; details: E. coli JMI 10768 (CTX-M15 (Weak ESBL))
Experimental: as §1

[4] = test system: E. coli JMI 10770; details: E. coli JMI 10770 (CTX-M15 (Hyper ESBL))
Experimental: as §1

[5] = test system: E. coli JMI 2665
Experimental: as §1

[6] = test system: E. coli JMI 2671
Procedure, shortened: (§2)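 Synergistic activity: antibiotics tested with inhibitor (4 µg/mL fixed) against strains expressing metallo β-lactamases.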

[7] = test system: K. pneumo JMI 2674; details: K. pneumo JMI 2674 (CTX-M15 (ESBL))
Procedure, shortened: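 Antibacterial activity was assessed as minimum inhibitory concentrations against a β-lactamase-producing bacterial strain. Each test inhibitor was combined with an antibiotic, with the inhibitor held at a fixed 4 µg/mL, to determine whether it acted synergistically and restored the antibiotic's effect against the resistant organism.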

[8] = test system: K. pneumo JMI 2699; details: K. pneumo JMI 2699 (VIM-1, CTX-M3)
Procedure, shortened: as §2

[9] = test system: K. pneumo JMI 4088; details: K. pneumo JMI 4088 (KPC-3 (Cpase))
Procedure, shortened: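 Minimum inhibitory concentrations were measured for antibiotics given together with the test inhibitor, held at 4 µg/mL, against bacteria that produce β-lactamase. The purpose was to see whether the inhibitor restores or boosts antibacterial activity, that is, synergy with the antibiotic.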

[10] = test system: K.pneumo JMI 4109; details: K.pneumo JMI 4109 (SHV-1, SHV-12)
Procedure, shortened: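 Antibacterial synergy was assessed by pairing each inhibitor compound, at a constant concentration of 4 µg/mL, with β-lactam antibiotics. The combinations were run against bacterial strains that produce β-lactamases, and the readout was the minimum inhibitory concentration of the antibiotic in the presence of the inhibitor.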

[11] = test system: K. pneumo JMI 4106; details: K. pneumo JMI 4106 (KPC-3, TEM-1, SHV-12, SHV-141)
[12] = test system: K. pneumo JMI 2681; details: K. pneumo JMI 2681 (Oxa-48 (Cpase))
[13] = test system: P. aerug JMI 149; details: P. aerug JMI 149 (Bla+++D+)
[14] = test system: E. cloacae JMI 36; details: E. cloacae JMI 36 (P99)
[15] = test system: K.pneumo JMI 4109; details: K.pneumo JMI 4109 (SHV-1, SHV-12); substance alone
[16] = test system: K. pneumo JMI 2673; details: K. pneumo JMI 2673 (CTX-M14 (ESBL)); substance alone
[17] = test system: K. pneumo JMI 2674; details: K. pneumo JMI 2674 (CTX-M15 (ESBL)); substance alone
[18] = test system: K. pneumo JMI 4088; details: K. pneumo JMI 4088 (KPC-3 (Cpase)); substance alone
[19] = test system: P. aerug JMI 2686; details: P. aerug JMI 2686 (KPC-2 (Cpase)); substance alone
[20] = test system: E. coli JMI 10767; details: E. coli JMI 10767 (Wt); remark: listed apart in the source
[21] = test system: E. coli JMI 10768; details: E. coli JMI 10768 (CTX-M15 (Weak ESBL)); Meropenem + inhibitor at 4 µg/mL
[22] = test system: E. coli JMI 10770; details: Escherichia coli, JMI10770; E. coli JMI 10770 (CTX-M15 (Hyper ESBL)); substance alone
[23] = test system: E. coli JMI 11103
[24] = Aztreonam + inhibitor at 4 µg/mL
[25] = Ceftazidime + inhibitor at 4 µg/mL
[26] = Meropenem + inhibitor at 4 µg/mL

In the case of CCC(=O)NNC(=O)[C@@H]1CC[C@@H]2CN1C(=O)N2OS(=O)(=O)O [Ex. 8, (2S,5R)-7-oxo-N'-propanoyl-6-(sulfooxy)-1,6-diazabicyclo[3.2.1]octane-2-carbohydrazide], the “MIC Aztreonam + inhibitor” value [1, 24] is reported as at most 0.0625 µg/mL, the “MIC Ceftazidime + inhibitor” value [1, 25] is reported as at most 0.25 µg/mL and the “MIC Meropenem + inhibitor” value [1, 26] is reported as at most 0.0312 µg/mL. For the same compound, the MIC ([1]; Escherichia coli, ATCC25922, substance alone) was 16 µg/mL, the “MIC Aztreonam + inhibitor” value [2, 24] was at most 0.062 µg/mL and the “MIC Ceftazidime + inhibitor” value [2, 25] was at most 0.25 µg/mL. For the same compound, the “MIC Aztreonam + inhibitor” value [3, 24] was at most 0.062 µg/mL, the “MIC Ceftazidime + inhibitor” value [3, 25] was at most 0.25 µg/mL and the MIC ([3]; Escherichia coli, JMI10768, substance alone) was over 16 µg/mL. For the same compound, the “MIC Aztreonam + inhibitor” value [4, 24] was at most 0.062 µg/mL, the “MIC Ceftazidime + inhibitor” value [4, 25] was at most 0.25 µg/mL and the “MIC Meropenem + inhibitor” value [4, 26] was at most 0.0312 µg/mL. The “MIC Aztreonam + inhibitor” value ([5]; E. coli JMI 2665 (CMY-2 (Plasmid Cpase)), Aztreonam + inhibitor at 4 µg/mL) was at most 0.062 µg/mL, the “MIC Ceftazidime + inhibitor” value ([5]; E. coli JMI 2665 (CMY-2 (Plasmid Cpase)), Ceftazidime + inhibitor at 4 µg/mL) was at most 0.25 µg/mL and the MIC ([5]; Escherichia coli, JMI2665) was 4 µg/mL. For the same compound, the “MIC Aztreonam + inhibitor” value ([6]; E. coli JMI 2671 (VIM-19 (Cpase)), Aztreonam + inhibitor at 4 µg/mL) was at most 0.062 µg/mL, the “MIC Ceftazidime + inhibitor” value ([6]; E. coli JMI 2671 (VIM-19 (Cpase)), Ceftazidime + inhibitor at 4 µg/mL) was 0.5 µg/mL and the “MIC Meropenem + inhibitor” value ([6]; E. coli JMI 2671 (VIM-19 (Cpase)), Meropenem + inhibitor at 4 µg/mL) was 1 µg/mL. For the same compound, the MIC ([6]; Escherichia coli, JMI2671, E. coli JMI 2671 (VIM-19 (Cpase)), substance alone) was over 16 µg/mL, the “MIC Aztreonam + inhibitor” value [7, 24] was at most 0.062 µg/mL and the “MIC Ceftazidime + inhibitor” value [7, 25] was at most 0.25 µg/mL. For the same compound, the “MIC Meropenem + inhibitor” value [7, 26] was 0.062 µg/mL, the “MIC Aztreonam + inhibitor” value [8, 24] was at most 0.062 µg/mL and the “MIC Ceftazidime + inhibitor” value [8, 25] was at most 0.25 µg/mL. For the same compound, the “MIC Meropenem + inhibitor” value [8, 26] was 0.125 µg/mL, the MIC ([8]; substance alone, read-out: MIC) was over 16 µg/mL and the “MIC Aztreonam + inhibitor” value [9, 24] was 0.125 µg/mL. The “MIC Ceftazidime + inhibitor” value [9, 25] was 0.5 µg/mL, the “MIC Meropenem + inhibitor” value [9, 26] was 0.5 µg/mL and the “MIC Aztreonam + inhibitor” value [10, 24] was at most 0.062 µg/mL. For the same compound, the “MIC Ceftazidime + inhibitor” value [10, 25] was at most 0.25 µg/mL, the “MIC Meropenem + inhibitor” value [10, 26] was at most 0.0312 µg/mL and the “MIC Aztreonam + inhibitor” value [11, 24] was at most 0.062 µg/mL. The “MIC Ceftazidime + inhibitor” value [11, 25] was at most 0.25 µg/mL, the “MIC Meropenem + inhibitor” value [11, 26] was at most 0.0312 µg/mL and the MIC ([11]; substance alone, read-out: MIC) was over 16 µg/mL. For the same compound, the “MIC Aztreonam + inhibitor” value [12, 24] was 0.125 µg/mL, the “MIC Ceftazidime + inhibitor” value [12, 25] was at most 0.25 µg/mL and the “MIC Meropenem + inhibitor” value [12, 26] was 0.5 µg/mL. For the same compound, the MIC ([12]; substance alone, read-out: MIC) was over 16 µg/mL, the “MIC Aztreonam + inhibitor” value [13, 24] was over 4 µg/mL and the “MIC Ceftazidime + inhibitor” value [13, 25] was over 16 µg/mL. The “MIC Meropenem + inhibitor” value [13, 26] was 0.5 µg/mL, the MIC ([13]; substance alone, read-out: MIC) was over 16 µg/mL and the “MIC Aztreonam + inhibitor” value [14, 24] was 0.125 µg/mL. For the same compound, the “MIC Ceftazidime + inhibitor” value [14, 25] was 0.5 µg/mL, the “MIC Meropenem + inhibitor” value [14, 26] was 0.25 µg/mL and the MIC ([14]; Enterobacter cloacae, JMI36, substance alone, read-out: MIC) was over 16 µg/mL. For the same compound, the MIC [15] was 4 µg/mL, the MIC [16] was over 16 µg/mL and the MIC [17] was over 16 µg/mL. The MIC [18] was over 16 µg/mL, the MIC [19] was over 16 µg/mL and the “MIC Meropenem + inhibitor” value [20, 26] was at most 0.0312 µg/mL. The MIC ([20]; Escherichia coli, JMI10767, substance alone) was over 16 µg/mL, the “MIC Meropenem + inhibitor” value [21] was at most 0.0312 µg/mL and the MIC [22] was over 16 µg/mL. The “MIC Aztreonam + inhibitor” value ([23]; E. coli JMI 11103 (CTX-M15 (Intermediate ESBL)), Aztreonam + inhibitor at 4 µg/mL) was at most 0.062 µg/mL, the “MIC Ceftazidime + inhibitor” value ([23]; E. coli JMI 11103 (CTX-M15 (Intermediate ESBL)), Ceftazidime + inhibitor at 4 µg/mL) was at most 0.25 µg/mL and the “MIC Meropenem + inhibitor” value ([23]; E. coli JMI 11103 (CTX-M15 (Intermediate ESBL)), Meropenem + inhibitor at 4 µg/mL) was at most 0.0312 µg/mL. The MIC ([23]; Escherichia coli, JMI11103, E. coli JMI 11103 (CTX-M15 (Intermediate ESBL)), substance alone) was over 16 µg/mL.
